Among the data in ChEMBL document CHEMBL5653631, “A Potent and Selective ULK1 Inhibitor Suppresses Autophagy and Sensitizes Cancer Cells to Nutrient Stress” (iScience, 2018) are inhibition values, retold here.

In assay [1] the target is Tyrosine-protein kinase Lck (Homo sapiens) (UniProt P06239). In words: Inhibition of human recombinant LCK at 40 nM in presence of ATP by radiometric assay relative to control.
In assay [2] the target is T1, Muscle, skeletal receptor tyrosine-protein kinase (Homo sapiens) (UniProt O15146).
T1 sequence (whole entry): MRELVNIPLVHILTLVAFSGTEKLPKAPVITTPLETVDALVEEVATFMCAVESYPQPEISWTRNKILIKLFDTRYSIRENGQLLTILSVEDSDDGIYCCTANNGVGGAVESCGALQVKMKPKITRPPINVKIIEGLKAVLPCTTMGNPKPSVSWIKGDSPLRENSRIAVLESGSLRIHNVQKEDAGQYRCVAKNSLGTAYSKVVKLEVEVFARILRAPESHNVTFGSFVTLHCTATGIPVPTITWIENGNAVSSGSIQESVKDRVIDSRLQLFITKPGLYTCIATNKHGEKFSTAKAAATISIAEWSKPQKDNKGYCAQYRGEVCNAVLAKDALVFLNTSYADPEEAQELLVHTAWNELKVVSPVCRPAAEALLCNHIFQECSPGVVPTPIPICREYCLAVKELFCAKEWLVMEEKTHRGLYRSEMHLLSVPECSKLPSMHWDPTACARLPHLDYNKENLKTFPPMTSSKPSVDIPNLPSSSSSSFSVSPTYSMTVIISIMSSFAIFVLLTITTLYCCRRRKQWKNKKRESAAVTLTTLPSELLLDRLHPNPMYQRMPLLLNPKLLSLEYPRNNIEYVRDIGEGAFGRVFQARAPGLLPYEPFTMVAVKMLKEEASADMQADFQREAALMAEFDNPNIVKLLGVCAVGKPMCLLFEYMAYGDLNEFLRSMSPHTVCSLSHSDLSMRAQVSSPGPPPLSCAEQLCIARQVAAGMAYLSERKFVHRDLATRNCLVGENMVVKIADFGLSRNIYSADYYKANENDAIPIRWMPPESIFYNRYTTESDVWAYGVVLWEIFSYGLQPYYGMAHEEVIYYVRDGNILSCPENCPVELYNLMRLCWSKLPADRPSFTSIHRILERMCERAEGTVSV
Nature of the assay: Inhibition of human recombinant MUSK at 40 nM in presence of ATP by radiometric assay relative to control.

In assay [3] the target is T2, Ephrin type-B receptor 1 (Homo sapiens) (UniProt P54762).
T2 sequence (whole entry): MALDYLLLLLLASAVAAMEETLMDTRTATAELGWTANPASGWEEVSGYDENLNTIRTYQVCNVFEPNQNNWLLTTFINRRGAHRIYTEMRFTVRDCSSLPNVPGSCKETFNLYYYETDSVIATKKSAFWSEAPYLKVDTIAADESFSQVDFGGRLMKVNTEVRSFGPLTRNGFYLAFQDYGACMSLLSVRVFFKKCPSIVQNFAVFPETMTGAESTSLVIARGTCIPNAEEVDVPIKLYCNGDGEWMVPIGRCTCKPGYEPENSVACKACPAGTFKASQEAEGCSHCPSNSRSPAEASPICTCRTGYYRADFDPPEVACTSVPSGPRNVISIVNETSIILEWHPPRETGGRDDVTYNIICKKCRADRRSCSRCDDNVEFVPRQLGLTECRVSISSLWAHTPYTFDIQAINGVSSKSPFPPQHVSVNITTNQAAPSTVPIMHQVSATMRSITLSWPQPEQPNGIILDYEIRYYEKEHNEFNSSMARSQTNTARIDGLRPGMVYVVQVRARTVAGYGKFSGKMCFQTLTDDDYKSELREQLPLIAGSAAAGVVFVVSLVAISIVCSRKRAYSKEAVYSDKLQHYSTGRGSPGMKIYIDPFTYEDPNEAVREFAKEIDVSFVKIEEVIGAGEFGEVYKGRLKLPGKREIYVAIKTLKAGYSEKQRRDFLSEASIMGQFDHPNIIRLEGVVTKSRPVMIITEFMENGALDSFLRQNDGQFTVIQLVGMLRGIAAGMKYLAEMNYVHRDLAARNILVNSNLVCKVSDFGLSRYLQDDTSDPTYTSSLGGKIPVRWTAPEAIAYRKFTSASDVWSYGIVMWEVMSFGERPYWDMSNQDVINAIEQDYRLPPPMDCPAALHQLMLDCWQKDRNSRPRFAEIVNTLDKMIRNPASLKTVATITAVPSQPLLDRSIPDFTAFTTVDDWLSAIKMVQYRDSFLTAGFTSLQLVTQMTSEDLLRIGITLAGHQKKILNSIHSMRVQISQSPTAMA
In words: Inhibition of human recombinant EphB1 at 500 nM in presence of ATP by radiometric assay relative to control.

Sequence of Tyrosine-protein kinase Lck (Homo sapiens) (P06239 2-509 limits assumed): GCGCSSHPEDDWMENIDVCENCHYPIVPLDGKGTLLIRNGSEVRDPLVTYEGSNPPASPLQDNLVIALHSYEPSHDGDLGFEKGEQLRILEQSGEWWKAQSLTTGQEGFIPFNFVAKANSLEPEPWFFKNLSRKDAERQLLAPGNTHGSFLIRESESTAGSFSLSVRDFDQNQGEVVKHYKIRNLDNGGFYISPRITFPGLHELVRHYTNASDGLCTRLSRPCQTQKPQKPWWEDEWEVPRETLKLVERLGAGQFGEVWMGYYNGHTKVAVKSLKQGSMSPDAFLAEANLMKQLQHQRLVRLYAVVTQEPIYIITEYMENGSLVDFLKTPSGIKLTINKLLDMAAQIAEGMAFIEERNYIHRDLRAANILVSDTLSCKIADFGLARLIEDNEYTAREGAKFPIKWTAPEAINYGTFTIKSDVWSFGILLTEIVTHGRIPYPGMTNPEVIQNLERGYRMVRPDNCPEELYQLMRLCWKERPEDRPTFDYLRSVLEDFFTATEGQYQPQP

For `O=C(N[C@@H](C1CC1)C(F)(F)F)c1cc(-c2cnn3cc(-c4ccc(F)cc4)cnc23)cs1`, the values for the inhibition in assay [1] and in assay [2] were 0% and 13%, respectively.
`CNC(=O)c1ccccc1Oc1nc(Nc2cc(OC)c(OC)c(OC)c2)ncc1Br`: the inhibition (as a rule, the percentage by which the read-out fell short of the control) in assay [3] turned out to be 10%.
